Values quoted from earlier work in paper PMC3688238, “The effect of different dosing regimens of motesanib on the gallbladder: a randomized phase 1b study in patients with advanced solid tumors” (BMC Cancer, 2013).
Like-named read-outs stand apart in the source and are kept apart here.

System: gallbladder
Conditions: cited from earlier work

Cc1ccc(NC(=O)c2ccc(CN3CCN(C)CC3)cc2)cc1Nc1nccc(-c2cccnc2)n1 [Imatinib]
Adverse events reported (case report, ref Breccia et al. [37]): Gallstones, gallbladder wall thickening, abdominal pain
Adverse events reported (phase 1 study, ref Grant et al. [24]): Cholecystitis
Adverse events reported (single-arm study, ref Yeh et al. [23]): Gallstones

CNC(=O)c1cc(Oc2ccc(NC(=O)Nc3ccc(Cl)c(C(F)(F)F)c3)cc2)ccn1 [Sorafenib]
Adverse events reported (case report, ref Sanda et al. [20]): Right upper abdominal pain, gallbladder edema, acute acalculous cholecystitis
Adverse events reported (ref Nexavar European public assessment report [26]): Cholecystitis, cholangitis
Adverse events reported (ref Nexavar US prescribing information [25]): Cholecystitis, cholangitis

COc1cc2c(Oc3ccc4[nH]c(C)cc4c3F)ncnc2cc1OCCCN1CCCC1 [Cediranib]
Adverse events reported (phase 1 study, ref Laurie et al. [21]): Acute cholecystitis
Adverse events reported (phase 2 study, ref Batchelor et al. [22]): Gallbladder obstruction, abdominal pain

CCN(CC)CCNC(=O)c1c(C)[nH]c(/C=C2\C(=O)Nc3ccc(F)cc32)c1C [Sunitinib]
Adverse events reported (case report, ref De Lima Lopes, Jr., et al. [18]): Acute emphysematous cholecystitis, right upper abdominal pain, gallbladder distension
Adverse events reported (case report, ref Gomez-Abuin et al. [19]): Acute acalculous cholecystitis, right upper abdominal pain, gallbladder wall thickening
Adverse events reported (single-arm study, ref Motzer et al. [17]): Acute cholecystitis
